From US8192962B2, “Processes for detecting toxic substances” (Daikin Industries, Ltd., priority 2001, dated 2012)

Test system: Energy system protein genes
Assay: DNA chip mRNA expression in yeast, energy system protein genes (Table 4)
Format: cell-based, Saccharomyces cerevisiae S288C
Method: Yeast (Saccharomyces cerevisiae S288C (α SUC2mal mel gap2 CUP1)) were incubated at 25° C. on YPD medium (yeast extract 1%, polypepton 2%, glucose 2%). One of toxic chemical substances was added to the cells at logarithmic growth phase, and the cells were further incubated for two hours. Cells were cultured without any chemical substance in the same condition, and were used as control. Concentrations of the chemical substances were defined to inhibit the growth of the yeast but not lead to death.
After completion of the incubation, the culture was centrifuged to collect the cells. To the cells, sodium acetate buffer (50 mM sodium acetate, 10 mM EDTA, 1% SDS) was added, and the mixture was shaken at 65° C. for five minutes, followed by returning to room temperature, and obtaining the supernatant, of which the procedures were repeated two times. To the supernatant, ½ amount of a solution of phenol/chloroform was added, and the mixture was centrifuged to give a supernatant, which was added with an equal amount of chloroform, and the mixture was centrifuged to give a supernatant. To the supernatant, an equal amount of isopropanol containing 0.3 M sodium acetate was added, and the mixture was allowed to stand at room temperature for 30 minutes, after which the mixture was centrifuged to give a sediment of the whole RNAs. Seventy % ethanol was added to the sediment, and the mixture was again centrifuged to give a sediment, which was then dried and dissolved in water. mRNA was isolated from the whole RNAs as followings. In view of the fact that a poly A chain is attached to the 3′ terminus of mRNA, a polynucleotide having a poly T structure which was immobilized on the surface of latex beads was used to trap the mRNA, and then the mRNA was washed and eluted with spine column (Oligotex-dT30<Super>mRNA Purification Kit, Takara). Reverse transcription of the mRNA was conducted with a reverse transcriptase (Super Script II Reverse Transcriptase; catalogue No. 18064-014, GibcoBRL) using fluorescence-labeled nucleotides to give cDNAs that were introduced with Cy3-dUTP or Cy5-dUTP during the reverse transcription.
The labeled cDNAs were dissolved in TE buffer (10mM Tris-HCl/1 mM EDTA, pH8.0), and the solution was dropped on the DNA chip containing the whole genes of yeast (DNA Chip Research Inc. Japan) so that the cDNAs were hybridized on the DNA chip at 65° C. for over 12 hours. The fluoresces intensity of the DNA chip was read with a scanner, and the ratio relative to the fluorescence intensity resulting from the absence of chemical substance was estimated as the following, which is shown in Tables 1 to 9: […]

[Cl][Cd][Cl] [(2), CdCl2]
The level of expressed mRNA in the presence of chemical substance/The level of expressed mRNA in the absence of chemical substance (yeast gene YJR048W): 0.9
The level of expressed mRNA in the presence of chemical substance/The level of expressed mRNA in the absence of chemical substance (yeast gene YJR121W, cells incubated two hours with the chemical substance): 1.1
The level of expressed mRNA in the presence of chemical substance/The level of expressed mRNA in the absence of chemical substance (yeast gene YJR155W): 3.7
The level of expressed mRNA in the presence of chemical substance/The level of expressed mRNA in the absence of chemical substance (yeast gene YKL016C, cells incubated two hours with the chemical substance): 1.3
The level of expressed mRNA in the presence of chemical substance/The level of expressed mRNA in the absence of chemical substance (yeast gene YKL060C, cells incubated two hours with the chemical substance): 0.8
The level of expressed mRNA in the presence of chemical substance/The level of expressed mRNA in the absence of chemical substance (yeast gene YKL141W, cells incubated two hours with the chemical substance): 1.1
The level of expressed mRNA in the presence of chemical substance/The level of expressed mRNA in the absence of chemical substance (yeast gene YKL148C, cells incubated two hours with the chemical substance): 0.8
The level of expressed mRNA in the presence of chemical substance/The level of expressed mRNA in the absence of chemical substance (yeast gene YKR009C, cells incubated two hours with the chemical substance): 1.2
The level of expressed mRNA in the presence of chemical substance/The level of expressed mRNA in the absence of chemical substance (yeast gene YKR058W, cells incubated two hours with the chemical substance, 25° C., YPD medium): 0.9
The level of expressed mRNA in the presence of chemical substance/The level of expressed mRNA in the absence of chemical substance (yeast gene YKR097W): 2.4
The level of expressed mRNA in the presence of chemical substance/The level of expressed mRNA in the absence of chemical substance (yeast gene YLL041C, cells incubated two hours with the chemical substance): 0.5
The level of expressed mRNA in the presence of chemical substance/The level of expressed mRNA in the absence of chemical substance (yeast gene YLR038C, cells incubated two hours with the chemical substance): 1.1
The level of expressed mRNA in the presence of chemical substance/The level of expressed mRNA in the absence of chemical substance (yeast gene YLR044C, cells incubated two hours with the chemical substance): 0.6
The level of expressed mRNA in the presence of chemical substance/The level of expressed mRNA in the absence of chemical substance (yeast gene YLR134W, cells incubated two hours with the chemical substance): 0.6
The level of expressed mRNA in the presence of chemical substance/The level of expressed mRNA in the absence of chemical substance (yeast gene YLR258W, cells incubated two hours with the chemical substance): 1.0
The level of expressed mRNA in the presence of chemical substance/The level of expressed mRNA in the absence of chemical substance (yeast gene YLR284C, cells incubated two hours with the chemical substance): 1.0
The level of expressed mRNA in the presence of chemical substance/The level of expressed mRNA in the absence of chemical substance (yeast gene YLR295C, cells incubated two hours with the chemical substance, 25° C., YPD medium): 1.1
The level of expressed mRNA in the presence of chemical substance/The level of expressed mRNA in the absence of chemical substance (yeast gene YLR304C, cells incubated two hours with the chemical substance): 0.6
The level of expressed mRNA in the presence of chemical substance/The level of expressed mRNA in the absence of chemical substance (yeast gene YLR345W): 1.4
The level of expressed mRNA in the presence of chemical substance/The level of expressed mRNA in the absence of chemical substance (yeast gene YLR354C, cells incubated two hours with the chemical substance): 2.5
The level of expressed mRNA in the presence of chemical substance/The level of expressed mRNA in the absence of chemical substance (yeast gene YLR377C, cells incubated two hours with the chemical substance): 2.6
The level of expressed mRNA in the presence of chemical substance/The level of expressed mRNA in the absence of chemical substance (yeast gene YLR395C, cells incubated two hours with the chemical substance): 1.3
The level of expressed mRNA in the presence of chemical substance/The level of expressed mRNA in the absence of chemical substance (yeast gene YML087C): 1.6
The level of expressed mRNA in the presence of chemical substance/The level of expressed mRNA in the absence of chemical substance (yeast gene YML120C, cells incubated two hours with the chemical substance): 1.2
The level of expressed mRNA in the presence of chemical substance/The level of expressed mRNA in the absence of chemical substance (yeast gene YML129C, cells incubated two hours with the chemical substance): 0.9
The level of expressed mRNA in the presence of chemical substance/The level of expressed mRNA in the absence of chemical substance (yeast gene YMR073C, cells incubated two hours with the chemical substance): 1.1
The level of expressed mRNA in the presence of chemical substance/The level of expressed mRNA in the absence of chemical substance (yeast gene YMR118C): 2.9
The level of expressed mRNA in the presence of chemical substance/The level of expressed mRNA in the absence of chemical substance (yeast gene YMR205C, cells incubated two hours with the chemical substance): 0.7
The level of expressed mRNA in the presence of chemical substance/The level of expressed mRNA in the absence of chemical substance (yeast gene YMR261C, cells incubated two hours with the chemical substance): 1.6
The level of expressed mRNA in the presence of chemical substance/The level of expressed mRNA in the absence of chemical substance (yeast gene YMR267W, cells incubated two hours with the chemical substance, 25° C., YPD medium): 1.8
The level of expressed mRNA in the presence of chemical substance/The level of expressed mRNA in the absence of chemical substance (yeast gene YMR323W, cells incubated two hours with the chemical substance): 1.1
The level of expressed mRNA in the presence of chemical substance/The level of expressed mRNA in the absence of chemical substance (yeast gene YNL071W): 0.9
The level of expressed mRNA in the presence of chemical substance/The level of expressed mRNA in the absence of chemical substance (yeast gene YNL202W, cells incubated two hours with the chemical substance): 1.3
The level of expressed mRNA in the presence of chemical substance/The level of expressed mRNA in the absence of chemical substance (yeast gene YNL241C): 2.5
The level of expressed mRNA in the presence of chemical substance/The level of expressed mRNA in the absence of chemical substance (yeast gene YNL331C): 3.6
The level of expressed mRNA in the presence of chemical substance/The level of expressed mRNA in the absence of chemical substance (yeast gene YOL086C, cells incubated two hours with the chemical substance): 0.5
The level of expressed mRNA in the presence of chemical substance/The level of expressed mRNA in the absence of chemical substance (yeast gene YOL165C): 4.5
The level of expressed mRNA in the presence of chemical substance/The level of expressed mRNA in the absence of chemical substance (yeast gene YOR142W, cells incubated two hours with the chemical substance): 1.2
The level of expressed mRNA in the presence of chemical substance/The level of expressed mRNA in the absence of chemical substance (yeast gene YOR178C, cells incubated two hours with the chemical substance): 1.3
The level of expressed mRNA in the presence of chemical substance/The level of expressed mRNA in the absence of chemical substance (yeast gene YOR388C, cells incubated two hours with the chemical substance): 1.6
The level of expressed mRNA in the presence of chemical substance/The level of expressed mRNA in the absence of chemical substance (yeast gene YPL031C, cells incubated two hours with the chemical substance): 2.0
The level of expressed mRNA in the presence of chemical substance/The level of expressed mRNA in the absence of chemical substance (yeast gene YPL061W, cells incubated two hours with the chemical substance): 1.4
The level of expressed mRNA in the presence of chemical substance/The level of expressed mRNA in the absence of chemical substance (yeast gene YPL088W): 1.3
The level of expressed mRNA in the presence of chemical substance/The level of expressed mRNA in the absence of chemical substance (yeast gene YPL171C): 4.1
The level of expressed mRNA in the presence of chemical substance/The level of expressed mRNA in the absence of chemical substance (yeast gene YPL240C): 1.4
The level of expressed mRNA in the presence of chemical substance/The level of expressed mRNA in the absence of chemical substance (yeast gene YPL262W, cells incubated two hours with the chemical substance): 1.7
The level of expressed mRNA in the presence of chemical substance/The level of expressed mRNA in the absence of chemical substance (yeast gene YPL275W, cells incubated two hours with the chemical substance): 1.5
The level of expressed mRNA in the presence of chemical substance/The level of expressed mRNA in the absence of chemical substance (yeast gene YPL276W, cells incubated two hours with the chemical substance): 1.5
The level of expressed mRNA in the presence of chemical substance/The level of expressed mRNA in the absence of chemical substance (yeast gene YPR048W, cells incubated two hours with the chemical substance): 2.0
The level of expressed mRNA in the presence of chemical substance/The level of expressed mRNA in the absence of chemical substance (yeast gene YPR184W, cells incubated two hours with the chemical substance): 1.4
